Patent US20210275518A1, “METHODS OF USING REBASTINIB IN THE TREATMENT OF DISORDERS” (Deciphera Pharmaceuticals, LLC, priority 2020, published 2021)

Assays:
ovarian cancer = experiment: Phase 1b/2 rebastinib + paclitaxel, Part 2 Cohort 3 (RECIST v1.1, CA-125 response); type: in vivo, human
Description: Upon determination of the RP2D, Part 2 is initiated to dose up to 165 evaluable patients using the RP2D across five indication-specific cohorts. A Simon's two-stage design is applied to Part 2 to further evaluate the safety, tolerability, and preliminary efficacy of rebastinib in combination with paclitaxel in triple-negative breast (Cohort 1), inflammatory breast (Cohort 2), ovarian (Cohort 3), endometrial adenocarcinoma (Cohort 4), and gynecologic carcinosarcoma (Cohort 5) cancers. Each cohort initially enrolls up to 18 evaluable patients in the first stage. Patients must receive at least 1 dose of the combination and have 1 post-baseline assessment (including assessment of clinical progression) or be discontinued prior to the postbaseline disease assessment due to an AE at least possibly related to rebastinib, to be considered evaluable. Tumor response is assessed according to Response Evaluation Criteria in Solid Tumors (RECIST) Version 1.1. The decision to enroll patients beyond the first stage is based on response assessments obtained after the first post-dose response assessment of the last patient enrolled in the first stage of a cohort. […] If ≤4 responses are seen in a cohort, the cohort will be terminated. If >4 responses are seen prior to the last evaluable patient in the first stage, expanding the cohort may be triggered earlier. Enrollment in each cohort will pause between the first and second stage of the Simon two-stage for evaluation of response. Patients will receive study treatment until they develop progressive disease, experience unacceptable toxicity, or withdraw consent.
29 patients with ovarian cancer were enrolled in this portion of the study as a safety population. Patients were treated with rebastinib (50 or 100 mg BID) in combination with 80 mg/m^2 intravenous weekly paclitaxel (day 1, day 8, and day 15 of repeated 28-day cycles). 10 of the patients treated with rebastinib were at a starting dose of 100 mg BID and 80 mg/m^2 weekly paclitaxel, of which the doses of 7 were reduced to 50 mg BID and 80 mg/m^2 weekly paclitaxel, and […] were at a starting dose of 50 mg BID and 80 mg/m^2 weekly paclitaxel. 23 (79%) patients received ≥4 prior anticancer regimens, and all patients received prior platinum and taxane-based therapy; 89% received anti-angiogenic therapy, 62% received anti-PARP therapy, and 31% received immunotherapy.
24 of the 29 patients met the modified intention-to-treat (mITT) criteria. Anti-tumor activity was assessed using RECIST v1.1 and Gynecological Cancer Intergroup CA-125 response. From 24 patients in the mITT population, the objective response rate was 38% and the clinical benefit rate at 8 weeks was 88%.
38 patients in a platinum-resistant ovarian cancer cohort were enrolled in this portion of the study as a safety population. Patients were treated with rebastinib (50 or 100 mg BID) in combination with 80 mg/m^2 intravenous weekly paclitaxel (day 1, day 8, and day 15 of repeated 28-day cycles). 34 of the 38 patients met the met the modified intention-to-treat (mITT) criteria. 27 (71%) patients received ≥4 prior anticancer regimens, and 97% patients received prior platinum and taxane-based therapy; 84% received bevacizumab, 66% received a PARP inhibitor, 31% received immunotherapy, and the average number of lines of therapy after platinum resistance was 2.

[1] = system: Low Passage Champions TUMORGRAFT Models of Human Mesothelioma; experiment: Preclinical rebastinib/carboplatin combination efficacy in mesothelioma PDx models; type: in vivo, immunocompromised mice; conditions: Model 2; 25 mg/kg rebastinib intraperitoneal + 20 mg/kg carboplatin intravenous
Description: This study was conducted to obtain preclinical evidence of rebastinib/carboplatin combination efficacy in mesothelioma to support clinical development. The study was an in vivo evaluation of rebastinib single agent and in combination with carboplatin (SOC), in Low Passage Champions TUMORGRAFT® Models of Human Mesothelioma in immunocompromised mice.
Mesothelioma PDx models were studied each with 8 animals per group for total of 4 groups per model. The study endpoint was when the mean tumor volume of the control reaches 1500 mm^3 or 60 days max. Terminal tumors were be collected, fixed, and embedded.

[2] = Cohort 3, time point 1, of the twelve with stable disease at Cycle 3, Day 1, Cycle 5, Day 1
[3] = Cohort 3, time point 1, rebastinib + paclitaxel, Cycle 3, Day 1
[4] = Cohort 3, time point 2, 17 evaluable patients
[5] = Table 1, Cohort 3, time point 4, mITT N = 34, patients (%)
[6] = Table 1, Cohort 3, time point 4, n 12

SMILES: CNC(=O)c1cc(Oc2ccc(NC(=O)Nc3cc(C(C)(C)C)nn3-c3ccc4ncccc4c3)c(F)c2)ccn1 [rebastinib]
- Patients with partial response (ovarian cancer; [2]): three
- Patients with stable disease (ovarian cancer; [2]): four
- Patients with partial response (second statement) (ovarian cancer; Cohort 3, time point 1, of the twelve with stable disease at Cycle 3, Day 1, Cycle 5, Day 1 (stated a second time)): one
- Patients with stable disease (ovarian cancer; Cohort 3, time point 1, of the twelve with stable disease at Cycle 3, Day 1, Cycle 5, Day 8): one
- Patients with stable disease (ovarian cancer; Cohort 3, time point 1, of the twelve with stable disease at Cycle 3, Day 1, Cycle 8, Day 1): two
- Patients with partial response (ovarian cancer; Cohort 3, time point 1, of the two with partial response at Cycle 3, Day 1, Cycle 5, Day 1): one
- Patients with partial response (ovarian cancer; [3]): Two
- Patients with stable disease (ovarian cancer; [3]): twelve
- CBR (ovarian cancer; [4]): 82%
- ORR (ovarian cancer; [4]): 29%
- Stable diseases (ovarian cancer; [4]): 9
- Partial responses (ovarian cancer; Cohort 3, time point 2, 17 evaluable patients, rebastinib 100 or 50 mg BID + paclitaxel): 5
- Muscular weakness, patients (ovarian cancer; Cohort 3, time point 2, initially 100 mg BID rebastinib (10 patients)): 4 patients
- Muscular weakness at reduced dose (ovarian cancer; Cohort 3, time point 2, reduced dose of 50 mg BID): No additional muscular weakness
- CA-125 response, patients (ovarian cancer; Cohort 3, time point 3, 17 patients with CA-125 measurements): 10 (59%)
- Clinical benefit rate at 8 weeks (ovarian cancer; Cohort 3, time point 3, 24 patients mITT): 88%
- Objective response rate (ovarian cancer; Cohort 3, time point 3, 24 patients mITT, rebastinib 50 or 100 mg BID with weekly paclitaxel 80 mg/m^2): 38%
- CA-125 response (ovarian cancer; Cohort 3, time point 4, 17 of 26 evaluable patients): 65.4%
- Clinical benefit rate at 8 weeks (ovarian cancer; Cohort 3, time point 4, 34 patients mITT): 88%
- Objective response rate (confirmed+unconfirmed) (ovarian cancer; Cohort 3, time point 4, platinum-resistant ovarian cancer, 34 patients mITT, rebastinib 50 or 100 mg BID with weekly paclitaxel 80 mg/m^2): 35%
- Best Overall Response: Confirmed Partial Response (ovarian cancer; [5]): 5 (14.7%)
- Best Overall Response: Not Evaluable (ovarian cancer; [5]): 3 (8.8%)
- Best Overall Response: Partial Response (ovarian cancer; [5]): 12 (35.3%)
- Best Overall Response: Progressive Disease (ovarian cancer; [5]): 1 (2.9%)
- Best Overall Response: Single Response Awaiting Confirmation (ovarian cancer; [5]): 4 (11.8%)
- Best Overall Response: Stable Disease (ovarian cancer; [5]): 18 (52.9%)
- Best Overall Response: Unconfirmed Single Response (ovarian cancer; [5]): 3 (8.8%)
- Duration of Response, Events (%) (ovarian cancer; [6]): 5 (41.7%)
- Time to Response, Mean (SD) (ovarian cancer; [6]): 3.1 (1.3)
- Duration of Response, Kaplan-Meier Median (80% CI) (ovarian cancer; Table 1, Cohort 3, time point 4, n 12, NE: Not evaluated): 5.5 (1.9, NE)
- Tumor inhibition [1]: 38%
